Laboratory results from PubChem BioAssay (NCI).
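These data come from cells grown in 96-well plates and exposed to compound for 48 hours at five concentrations. Abbreviation: GI50, concentration required for 50% inhibition of growth. At the TGI there is no net growth.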

Assays:
Assay in all cases: NCI tumour cell line growth inhibition, 48 h
[1] = tested on: M14 melanoma
[2] = tested on: OVCAR-8 ovarian
[3] = tested on: HOP-92 NSCLC
[4] = tested on: SNB-19 CNS
[5] = tested on: LOX IMVI melanoma
[6] = tested on: PC-3 prostate
[7] = tested on: NCI-H226 lung
[8] = tested on: HOP-62 NSCLC
[9] = tested on: SK-MEL-5 melanoma
[10] = tested on: HT29 colon
[11] = tested on: HCC-2998 colon
[12] = tested on: SW-620 colon
[13] = tested on: COLO 205 colon
[14] = tested on: UACC-257 melanoma
[15] = tested on: KM12 colon
[16] = tested on: SK-MEL-28 melanoma
[17] = tested on: SR leukemia
[18] = tested on: ACHN renal
[19] = tested on: OVCAR-5 ovarian
[20] = tested on: BT-549 breast
[21] = tested on: UO-31 renal
[22] = tested on: MDA-MB-231 breast
[23] = tested on: HCT-116 colon
[24] = tested on: IGROV1 ovarian
[25] = tested on: A549 NSCLC
[26] = tested on: 786-0 renal
[27] = tested on: MDA-MB-435
[28] = tested on: NCI-H522 lung
[29] = tested on: CCRF-CEM leukemia
[30] = tested on: MCF7 breast
[31] = tested on: DU-145 prostate
[32] = tested on: HS 578T breast
[33] = tested on: RPMI-8226 leukemia
[34] = tested on: OVCAR-4 ovarian
[35] = tested on: HCT-15 colon
[36] = tested on: TK-10 renal
[37] = tested on: SF-539 CNS
[38] = tested on: MOLT-4 leukemia
[39] = tested on: A498 renal
[40] = tested on: CAKI-1 renal
[41] = tested on: K-562 leukemia
[42] = tested on: SK-OV-3 ovarian
[43] = tested on: SK-MEL-2 melanoma
[44] = tested on: NCI/ADR-RES ovarian
[45] = tested on: SN12C renal
[46] = tested on: RXF 393 renal
[47] = tested on: NCI-H460 lung
[48] = tested on: UACC-62 melanoma
[49] = tested on: SF-295 CNS
[50] = tested on: T-47D breast
[51] = tested on: U251 CNS
[52] = tested on: SF-268 CNS
[53] = tested on: OVCAR-3 ovarian
[54] = tested on: MALME-3M melanoma
[55] = tested on: EKVX NSCLC
[56] = tested on: SNB-75 CNS
[57] = tested on: NCI-H23 lung

## Cc1c(-c2ccc(O)c(O)c2)oc(=O)c2c(O)cc(O)cc12
[1]
  GI50: 8.07 µM
  TGI: 68.3 µM
[2]
  GI50: 17.9 µM
  TGI: 90 µM
[3]
  GI50: 17.2 µM
  TGI: > 100 µM
[4]
  GI50: 45.6 µM
  TGI: > 100 µM
[5]
  GI50: 13.1 µM
  TGI: > 100 µM
[6]
  GI50: 29.5 µM
  TGI: > 100 µM
[7]
  GI50: 21.3 µM
  TGI: > 100 µM
[8]
  GI50: 18.2 µM
  TGI: 61.5 µM
[9]
  GI50: 6.59 µM
  TGI: 30.8 µM
[10]
  GI50: 54.1 µM
  TGI: > 100 µM
[11]
  GI50: 31.5 µM
  TGI: 88.6 µM
[12]
  GI50: 4.92 µM
  TGI: > 100 µM
[13]
  GI50: 67.4 µM
  TGI: > 100 µM
[14]
  GI50: 14.4 µM
  TGI: 53.3 µM
[15]
  GI50: 12.2 µM
  TGI: 54.7 µM
[16]
  GI50: 19.8 µM
  TGI: > 100 µM
[17]
  GI50: 4.52 µM
  TGI: > 100 µM
[18]
  GI50: 21.3 µM
  TGI: > 100 µM
[19]
  GI50: 42.9 µM
  TGI: > 100 µM
[20]
  GI50: 6.78 µM
  TGI: 43.2 µM
[21]
  GI50: 6.9 µM
  TGI: > 100 µM
[22]
  GI50: 86.8 µM
  TGI: > 100 µM
[23]
  GI50: 14 µM
  TGI: > 100 µM
[24]
  GI50: 2.3 µM
  TGI: 6.34 µM
[25]
  GI50: 19.4 µM
  TGI: > 100 µM
[26]
  GI50: 14.4 µM
  TGI: > 100 µM
[27]
  GI50: 2.17 µM
  TGI: 6.14 µM
[28]
  GI50: 5.08 µM
  TGI: > 100 µM
[29]
  GI50: 2.83 µM
  TGI: > 100 µM
[30]
  GI50: 39.1 µM
  TGI: > 100 µM
[31]
  GI50: 28.8 µM
  TGI: > 100 µM
[32]
  GI50: 9.69 µM
  TGI: 91.9 µM
[33]
  GI50: 7.69 µM
  TGI: 45.3 µM
[34]
  GI50: 46.5 µM
  TGI: > 100 µM
[35]
  GI50: 9.66 µM
  TGI: > 100 µM
[36]
  GI50: 7.97 µM
  TGI: 36 µM
[37]
  GI50: 13.2 µM
  TGI: 63.7 µM
[38]
  GI50: 42.8 µM
  TGI: > 100 µM
[39]
  GI50: 20.7 µM
  TGI: 56.8 µM
[40]
  GI50: 11.3 µM
  TGI: 46.5 µM
[41]
  GI50: 19.5 µM
  TGI: > 100 µM
[42]
  GI50: 62.7 µM
  TGI: > 100 µM
[43]
  GI50: 26 µM
  TGI: > 100 µM
[44]
  GI50: 14.1 µM
  TGI: > 100 µM
[45]
  GI50: 14.5 µM
  TGI: 59.1 µM
[46]
  GI50: 49.8 µM
  TGI: > 100 µM
[47]
  GI50: 12.1 µM
  TGI: > 100 µM
[48]
  GI50: 8.45 µM
  TGI: 45.1 µM
[49]
  GI50: 7.52 µM
  TGI: 28.9 µM
[50]
  GI50: 88.7 µM
  TGI: > 100 µM
[51]
  GI50: 9.67 µM
  TGI: > 100 µM
[52]
  GI50: 11.1 µM
  TGI: > 100 µM
[53]
  GI50: 11.1 µM
  TGI: 57.8 µM
[54]
  GI50: 1.16 µM
  TGI: 10.3 µM
[55]
  GI50: 15.7 µM
  TGI: 63.9 µM

## CC(Cc1ccc(O)cc1)NCC(O)c1ccc(O)c(O)c1 (stereo not given)
[1]
  TGI: > 100 µM
[2]
  TGI: > 100 µM
[3]
  TGI: > 100 µM
[56]
  TGI: > 100 µM
[4]
  TGI: > 100 µM
[5]
  TGI: > 100 µM
[6]
  TGI: > 100 µM
[7]
  TGI: > 100 µM
[8]
  TGI: > 100 µM
[9]
  TGI: > 100 µM
[10]
  TGI: > 100 µM
[12]
  TGI: > 100 µM
[14]
  TGI: > 100 µM
[15]
  TGI: > 100 µM
[16]
  TGI: > 100 µM
[17]
  TGI: > 100 µM
[18]
  TGI: > 100 µM
[19]
  TGI: > 100 µM
[20]
  TGI: > 100 µM
[21]
  TGI: > 100 µM
[22]
  TGI: > 100 µM
[23]
  TGI: > 100 µM
[24]
  TGI: > 100 µM
[25]
  TGI: > 100 µM
[26]
  TGI: > 100 µM
[27]
  TGI: > 100 µM
[28]
  TGI: > 100 µM
[29]
  TGI: > 100 µM
[30]
  TGI: > 100 µM
[31]
  TGI: > 100 µM
[32]
  TGI: > 100 µM
[33]
  TGI: > 100 µM
[34]
  TGI: > 100 µM
[35]
  TGI: > 100 µM
[36]
  TGI: > 100 µM
[37]
  TGI: > 100 µM
[38]
  TGI: > 100 µM
[39]
  TGI: > 100 µM
[40]
  TGI: > 100 µM
[41]
  TGI: > 100 µM
[42]
  TGI: > 100 µM
[43]
  TGI: > 100 µM
[44]
  TGI: > 100 µM
[45]
  TGI: > 100 µM
[46]
  TGI: > 100 µM
[47]
  TGI: > 100 µM
[48]
  TGI: > 100 µM
[49]
  TGI: > 100 µM
[50]
  TGI: > 100 µM
[51]
  TGI: > 100 µM
[52]
  TGI: > 100 µM
[53]
  TGI: > 100 µM
[54]
  TGI: > 100 µM
[57]
  TGI: > 100 µM
[55]
  TGI: > 100 µM
